Test results taken from patent US20250270209A1 (INTERLINE THERAPEUTICS, INC., priority 2022, published 2025).

Key:
[1] = target: T1, wild type LRRK2 overexpressed in recombinant HEK-293T cells (Homo sapiens, UniProt Q5S007); test: pS935 LRRK2 Cell Assay (HTRF, phospho-LRRK2 Ser935); assay type: cell-based; conditions: LRRK2 Inhibition, Table 8, 2 hours compound incubation
T1 construct: host or cells: HEK293T (transient transfection with pCMV-LRRK2 WT plasmid)
Outline: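 HEK-293T cells transiently transfected with wild-type LRRK2 for 24 h, plated overnight, then treated 2 h at 37° C with compound (top 10 μM, 3-fold, 9 doses, duplicates, 0.2% DMSO). Lysates probed overnight at 23° C by sandwich HTRF for pSer935; 665/615 nm ratio read.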

LRRK2 wild type enzyme = LRRK2 wild type enzyme (Homo sapiens, UniProt Q5S007); test: Biochemical Assay: LRRK2 TR-FRET (LanthaScreen) kinase assay with LRRKtide substrate; conditions: LRRK2 Inhibition, Table 8
Sequence of LRRK2 wild type enzyme (Q5S007 whole entry): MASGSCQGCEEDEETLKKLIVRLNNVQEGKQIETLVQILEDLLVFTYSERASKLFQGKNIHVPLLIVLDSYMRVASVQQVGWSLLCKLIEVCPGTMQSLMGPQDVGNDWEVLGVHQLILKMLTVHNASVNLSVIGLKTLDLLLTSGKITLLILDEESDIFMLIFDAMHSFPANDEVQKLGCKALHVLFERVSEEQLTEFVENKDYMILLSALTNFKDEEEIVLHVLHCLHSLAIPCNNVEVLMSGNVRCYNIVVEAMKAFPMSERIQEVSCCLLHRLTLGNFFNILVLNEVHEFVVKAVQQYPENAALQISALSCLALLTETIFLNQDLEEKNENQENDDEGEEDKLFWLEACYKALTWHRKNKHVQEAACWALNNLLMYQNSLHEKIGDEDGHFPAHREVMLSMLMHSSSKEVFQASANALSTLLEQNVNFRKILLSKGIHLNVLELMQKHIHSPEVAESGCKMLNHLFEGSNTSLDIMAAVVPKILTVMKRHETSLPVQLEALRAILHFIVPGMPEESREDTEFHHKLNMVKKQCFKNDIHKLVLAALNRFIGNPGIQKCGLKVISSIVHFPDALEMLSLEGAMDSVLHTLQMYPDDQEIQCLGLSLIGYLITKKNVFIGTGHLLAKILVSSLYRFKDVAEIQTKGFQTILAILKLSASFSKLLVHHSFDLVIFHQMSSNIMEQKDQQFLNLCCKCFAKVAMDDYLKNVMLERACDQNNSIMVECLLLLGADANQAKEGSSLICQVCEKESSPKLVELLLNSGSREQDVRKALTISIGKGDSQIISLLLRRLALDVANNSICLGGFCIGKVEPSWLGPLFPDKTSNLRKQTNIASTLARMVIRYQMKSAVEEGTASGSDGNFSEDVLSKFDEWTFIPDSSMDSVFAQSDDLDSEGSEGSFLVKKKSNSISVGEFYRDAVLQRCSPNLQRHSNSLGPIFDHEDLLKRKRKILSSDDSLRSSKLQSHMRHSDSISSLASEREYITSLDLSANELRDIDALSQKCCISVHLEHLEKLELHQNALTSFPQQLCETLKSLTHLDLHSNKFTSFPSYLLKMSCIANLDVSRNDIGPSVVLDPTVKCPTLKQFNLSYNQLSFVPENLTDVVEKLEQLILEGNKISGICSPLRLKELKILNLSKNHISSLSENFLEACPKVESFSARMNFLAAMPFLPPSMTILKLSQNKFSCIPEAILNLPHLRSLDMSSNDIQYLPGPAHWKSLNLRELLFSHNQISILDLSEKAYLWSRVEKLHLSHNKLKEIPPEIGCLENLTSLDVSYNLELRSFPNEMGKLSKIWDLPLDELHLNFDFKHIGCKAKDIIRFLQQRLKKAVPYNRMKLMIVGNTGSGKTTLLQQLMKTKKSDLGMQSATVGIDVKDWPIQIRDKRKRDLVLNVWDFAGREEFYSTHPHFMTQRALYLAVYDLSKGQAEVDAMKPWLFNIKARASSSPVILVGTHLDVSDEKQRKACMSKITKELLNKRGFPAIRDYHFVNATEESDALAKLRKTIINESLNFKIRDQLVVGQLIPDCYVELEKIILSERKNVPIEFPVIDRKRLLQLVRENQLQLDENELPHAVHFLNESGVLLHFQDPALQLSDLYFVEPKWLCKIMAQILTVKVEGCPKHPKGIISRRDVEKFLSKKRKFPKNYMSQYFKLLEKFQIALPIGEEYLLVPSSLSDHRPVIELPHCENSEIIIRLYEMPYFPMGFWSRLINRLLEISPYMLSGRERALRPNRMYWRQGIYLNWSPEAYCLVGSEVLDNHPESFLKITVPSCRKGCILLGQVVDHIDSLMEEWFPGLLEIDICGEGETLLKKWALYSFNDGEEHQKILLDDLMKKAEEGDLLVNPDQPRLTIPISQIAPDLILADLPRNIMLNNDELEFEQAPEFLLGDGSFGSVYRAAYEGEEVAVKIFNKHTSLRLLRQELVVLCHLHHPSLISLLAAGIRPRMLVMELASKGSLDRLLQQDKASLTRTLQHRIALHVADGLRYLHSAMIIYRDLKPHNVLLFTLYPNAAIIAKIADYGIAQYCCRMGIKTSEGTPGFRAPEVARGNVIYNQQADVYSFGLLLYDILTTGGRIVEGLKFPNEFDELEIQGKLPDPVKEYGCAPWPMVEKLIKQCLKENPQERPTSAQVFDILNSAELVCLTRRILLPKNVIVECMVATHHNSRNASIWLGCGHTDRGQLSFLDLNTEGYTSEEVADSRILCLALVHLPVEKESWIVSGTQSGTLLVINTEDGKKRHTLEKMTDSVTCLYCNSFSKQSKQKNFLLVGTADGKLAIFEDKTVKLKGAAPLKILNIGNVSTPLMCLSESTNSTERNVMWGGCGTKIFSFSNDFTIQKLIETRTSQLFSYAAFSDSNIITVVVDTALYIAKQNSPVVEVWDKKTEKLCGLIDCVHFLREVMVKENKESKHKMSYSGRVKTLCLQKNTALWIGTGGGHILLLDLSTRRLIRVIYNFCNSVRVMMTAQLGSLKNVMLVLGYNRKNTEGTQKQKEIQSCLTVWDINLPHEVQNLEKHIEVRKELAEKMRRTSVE
Outline: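 Human wild-type LRRK2 (3 nM) preincubated 15 min with compound (11-point, 3-fold, top 10 μM), then reacted 120 min at 23 °C with 400 nM LRRKtide and 25 μM ATP, pH 8.0. Stopped with EDTA; Tb-anti-pLRRKtide TR-FRET read after 30 min.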

T1 sequence (Q5S007 whole entry): as above

Compound	IC50 [1] [nM]	IC50 (LRRK2 wild type enzyme) [nM]
C[C@@H]1C[C@H](n2c(C3CCN(C(=O)c4cnn(C)c4)CC3)nc3cnc4ccc(C#N)cc4c32)CCO1 [Compound 118, 2-[1-(1-methyl-1H-pyrazole-4-carbonyl)piperidin-4-yl]-1-[(2R,4R)-2-methyloxan-4-yl]-1H-imidazo[4,5-c]quinoline-8-carbonitrile]	330	0.855
C[C@@H]1C[C@H](n2c(CC(=O)Nc3ncc(C(F)(F)F)cn3)nc3cnc4ccc(C#N)cc4c32)CCO1 [Compound 355, N-[5-(trifluoromethyl)-2-pyrimidinyl]{3-[(2R,4R)-2-methyltetrahydro-2H-pyran-4-yl]-12-cyano-3,5,8-triazatricyclo[7.4.0.0^2,6]trideca-1(9),2(6),4,7,10,12-hexaen-4-yl}acetamide]	3.92	0.491
Cc1ccc2ncc3nc(CC(=O)NC4CC4)n([C@@H]4CCO[C@H](C)C4)c3c2c1 [Compound 191, N-cyclopropyl-2-{8-methyl-1-[(2R,4R)-2-methyloxan-4-yl]-1H-imidazo[4,5-c]quinolin-2-yl}acetamide]	65.6	0.961
C[C@@H]1C[C@H](n2c(C3CC(=O)N(c4cnn(C)c4)C3)nc3cnc4ccc(Cl)cc4c32)CCO1 (stereo partly drawn) [Compound 108, 4-{8-chloro-1-[(2R,4R)-2-methyloxan-4-yl]-1H-imidazo[4,5-c]quinolin-2-yl}-1-(1-methyl-1H-pyrazol-4-yl)pyrrolidin-2-one]	42.8	0.981
C[C@@H]1C[C@H](n2c(CC(=O)Nc3ccccn3)nc3cnc4ccc(C#N)cc4c32)CCO1 [Compound 155, 2-{8-cyano-1-[(2R,4R)-2-methyloxan-4-yl]-1H-imidazo[4,5-c]quinolin-2-yl}-N-(pyridin-2-yl)acetamide]	2.87	0.441
C[C@@H]1C[C@H](n2c(CC(=O)Nc3ccc(Cl)nc3)nc3cnc4ccc(C#N)cc4c32)CCO1 [Compound 297, N-(6-chloro-3-pyridyl){3-[(2R,4R)-2-methyltetrahydro-2H-pyran-4-yl]-12-cyano-3,5,8-triazatricyclo[7.4.0.0^2,6]trideca-1,4,6,8,10,12-hexaen-4-yl}acetamide]	3.99	0.225
Cc1cncc(NC(=O)Cc2nc3cnc4ccc(C#N)cc4c3n2[C@@H]2CCO[C@H](C)C2)c1 [Compound 269, N-(5-methyl-3-pyridyl){3-[(2R,4R)-2-methyltetrahydro-2H-pyran-4-yl]-12-cyano-3,5,8-triazatricyclo[7.4.0.0^2,6]trideca-1,4,6,8,10,12-hexaen-4-yl}acetamide]	5.17	0.379
C[C@@H]1C[C@H](n2c(CC(=O)NCc3ccccn3)nc3cnc4ccc(C#N)cc4c32)CCO1 [Compound 86, 2-{8-cyano-1-[(2R,4R)-2-methyloxan-4-yl]-1H-imidazo[4,5-c]quinolin-2-yl}-N-[(pyridin-2-yl)methyl]acetamide]	7.12	0.422
C[C@@H]1C[C@H](n2c(CC(=O)NC3CC3)nc3cnc4ccc(C#N)cc4c32)CCO1 [Compound 5, 2-{8-cyano-1-[(2R,4R)-2-methyloxan-4-yl]-1H-imidazo[4,5-c]quinolin-2-yl}-N-cyclopropylacetamide]	35.6	0.586
C[C@@H]1C[C@H](n2c(CC(=O)NCC3CC3)nc3cnc4ccc(Cl)cc4c32)CCO1 [Compound 107, 2-{8-chloro-1-[(2R,4R)-2-methyloxan-4-yl]-1H-imidazo[4,5-c]quinolin-2-yl}-N-(cyclopropylmethyl)acetamide]	10.9	0.354
C[C@@H]1C[C@H](n2c([C@H]3CCN(S(=O)(=O)C4CC4)C3)nc3cnc4ccc(C#N)cc4c32)CCO1 [Compound 25, 2-[(3S)-1-(cyclopropanesulfonyl)pyrrolidin-3-yl]-1-[(2R,4R)-2-methyloxan-4-yl]-1H-imidazo[4,5-c]quinoline-8-carbonitrile]	563	6.13
C[C@@H]1C[C@H](n2c(CC(=O)Nc3cnoc3)nc3cnc4ccc(Cl)cc4c32)CCO1 [Compound 313]	7.09	0.722
COc1ncncc1NC(=O)Cc1nc2cnc3ccc(C#N)cc3c2n1[C@@H]1CCO[C@H](C)C1 [Compound 251, N-(4-methoxy-5-pyrimidinyl){3-[(2R,4R)-2-methyltetrahydro-2H-pyran-4-yl]-12-cyano-3,5,8-triazatricyclo[7.4.0.0^2,6]trideca-1(9),2(6),4,7,10,12-hexaen-4-yl}acetamide]	3.56	0.382
COc1nn(C)cc1NC(=O)Cc1nc2cnc3ccc(C#N)cc3c2n1[C@@H]1CCO[C@H](C)C1 [Compound 229, N-(3-methoxy-1-methyl-4-pyrazolyl){3-[(2R,4R)-2-methyltetrahydro-2H-pyran-4-yl]-12-cyano-3,5,8-triazatricyclo[7.4.0.0^2,6]trideca-1,4,6,8,10,12-hexaen-4-yl}acetamide]	6.62	0.316
C[C@@H]1C[C@H](n2c(C3CCC(=O)N(CC4CC4)C3)nc3cnc4ccc(C#N)cc4c32)CCO1 (stereo partly drawn) [Compound 50, 2-[1-(cyclopropylmethyl)-6-oxopiperidin-3-yl]-1-[(2R,4R)-2-methyloxan-4-yl]-1H-imidazo[4,5-c]quinoline-8-carbonitrile]	875	7.5
Cc1nc2n(n1)CC(NC(=O)Cc1nc3cnc4ccc(C#N)cc4c3n1[C@@H]1CCO[C@H](C)C1)CC2 (stereo partly drawn) [Compound 244, N-(2-methyl-4,5,6,7-tetrahydro-1,3,3a-triaza-5-indenyl){3-[(2R,4R)-2-methyltetrahydro-2H-pyran-4-yl]-12-cyano-3,5,8-triazatricyclo[7.4.0.0^2,6]trideca-1,4,6,8,10,12-hexaen-4-yl}acetamide]	2630	1.39
C[C@@H]1C[C@H](n2c(CC(=O)N[C@@H]3C[C@H]3F)nc3cnc4ccc(C#N)cc4c32)CCO1 [Compound 246, N-[(1R,2R)-2-fluorocyclopropyl]{3-[(2R,4R)-2-methyltetrahydro-2H-pyran-4-yl]-12-cyano-3,5,8-triazatricyclo[7.4.0.0^2,6]trideca-1(13),2(6),4,7,9,11-hexaen-4-yl}acetamide]	52.2	1.1
C[C@@H]1C[C@H](n2c(CC(=O)Nc3cccnc3C(F)(F)F)nc3cnc4ccc(C#N)cc4c32)CCO1 [Compound 285, N-[2-(trifluoromethyl)-3-pyridyl]{3-[(2R,4R)-2-methyltetrahydro-2H-pyran-4-yl]-12-cyano-3,5,8-triazatricyclo[7.4.0.0^2,6]trideca-1,4,6,8,10,12-hexaen-4-yl}acetamide]	18.2	0.68
CCc1ncc(NC(=O)Cc2nc3cnc4ccc(C#N)cc4c3n2[C@@H]2CCO[C@H](C)C2)cn1 [Compound 262, N-(2-ethyl-5-pyrimidinyl){3-[(2R,4R)-2-methyltetrahydro-2H-pyran-4-yl]-12-cyano-3,5,8-triazatricyclo[7.4.0.0^2,6]trideca-1,4,6,8,10,12-hexaen-4-yl}acetamide]	18.2	0.467
C[C@@H]1C[C@H](n2c(CC(=O)NCc3cccc(C(F)(F)F)n3)nc3cnc4ccc(C#N)cc4c32)CCO1 [Compound 370, N-{[6-(trifluoromethyl)-2-pyridyl]methyl}{3-[(2R,4R)-2-methyltetrahydro-2H-pyran-4-yl]-12-cyano-3,5,8-triazatricyclo[7.4.0.0^2,6]trideca-1(9),2(6),4,7,10,12-hexaen-4-yl}acetamide]	2.74	0.295
